In general, EC50 refers to the concentration that produces a half-maximal response. For orientation: CC50 means the concentration that lowers cell viability or growth by half. The low end stands for harm at low concentration, the high end for better tolerance by the cells.

The values that follow come from patent publication US20220389007A1, “INHIBITORS OF HUMAN IMMUNODEFICIENCY VIRUS REPLICATION” (VIIV HEALTHCARE UK (No. 5) LIMITED, priority 2019, published 2022).

For one data set, the system named is recombinant NL4-3 virus. The data set is described as follows: HIV cell culture assay (antiviral activity, luciferase readout). In kind it is cell-based. Particulars: Human immunodeficiency virus 1, NL43, MT2, MT-2 cells infected for 4-5 days with recombinant NL4-3 virus carrying Renilla luciferase. Here is the method:
HIV cell culture assay—MT-2 cells, 293T cells and the proviral DNA clone of NL4-3 virus were obtained from the NIH AIDS Research and Reference Reagent Program. MT-2 cells were propagated in RPMI 1640 media supplemented with 10% heat inactivated fetal bovine serum (FBS), […]. The 293T cells were propagated in DMEM media supplemented with 10% heat inactivated FBS, […]. A recombinant NL4-3 proviral clone, in which a section of the nef gene was replaced with the Renilla luciferase gene, was used to make the reference virus used in these studies. The recombinant virus was prepared through transfection of the recombinant NL4-3 proviral clone into 293T cells using Transit-293 Transfection Reagent from Mirus Bio LLC (Madison, WI). Supernatent was harvested after 2-3 days and the amount of virus present was titered in MT-2 cells using luciferase enzyme activity as a marker by measuring luciferase enzyme activity. Luciferase was quantitated using the EnduRen Live Cell Substrate from Promega (Madison, Wis.). Antiviral activities of compounds toward the recombinant virus were quantified by measuring luciferase activity in MT-2 cells infected for 4-5 days with the recombinant virus in the presence of serial dilutions of the compound.
The 50% effective concentration (EC50) was calculated by using the exponential form of the median effect equation where (Fa)=1/[1+(ED50/drug conc.)m] (Johnson VA, Byington RT. Infectivity Assay. In Techniques in HIV Research. ed. Aldovini A, Walker BD. 71-76. New York: Stockton Press. 1990). The 50% inhibitory concentration (EC50) was calculated by using the exponential form of the median effect equation where percent inhibition=1/[1+(EC50/drug concentration)m], where m is a parameter that reflects the slope of the concentration-response curve.

Data set [1] in a line: Compound cytotoxicity, XTT-based colorimetric assay. In kind it is cell-based. Particulars: human; uninfected MT2 cells, day 4, XTT assay. Here is the method:
Compound cytotoxicity and the corresponding CC50 values were determined using the same protocol as described in the antiviral assay except that uninfected cells were used. Cytotoxicity was assessed on day 4 in uninfected MT2 cells by using a XTT (2,3-bis[2-Methoxy-4-nitro-5-sulfophenyl]-2H-tetrazolium-5-carboxyanilide inner salt)-based colorimetric assay (Sigma-Aldrich, St Louis, Mo.).
Background: Formazan colour is commonly taken as a measure of viable cells.

In the case of `Cn1nc(NS(C)(=O)=O)c2c(Cl)ccc(-n3c([C@H](Cc4cc(F)cc(F)c4)NC(=O)Cn4nc(C(F)F)c5c4C(F)(F)[C@@H]4C[C@H]54)nc4nc(-c5ccc(F)cc5C(F)(F)F)ccc4c3=O)c21` (atropisomer, axis not shown; (P)) [Example 22, N-((S)-1-((3P)-3-(4-chloro-1-methyl-3-(methylsulfonamido)-1H-indazol-7-yl)-7-(4-fluoro-2-(trifluoromethyl)phenyl)-4-oxo-3,4-dihydropyrido[2,3-d]pyrimidin-2-yl)-2-(3,5-difluorophenyl)ethyl)-2-((3bS,4aR)-3-(difluoromethyl)-5,5-difluoro-3b,4,4a,5-tetrahydro-1H-cyclopropa[3,4]cyclopenta[1,2-c]pyrazol-1-yl)acetamide], the EC50 in the data set on recombinant NL4-3 virus came out at 0.052 nM. In data set [1], the CC50 at 4 day is > 100 nM.
In the case of `Cn1nc(NS(C)(=O)=O)c2c(Cl)ccc(-n3c([C@H](Cc4cc(F)cc(F)c4)NC(=O)Cn4nc(C(F)F)c5c4C(F)(F)[C@@H]4C[C@H]54)nc4ncc(-c5cccc(C(F)(F)F)n5)cc4c3=O)c21` (atropisomer, axis not shown; (P)) [Example 1, N-((S)-1-((3P)-3-(4-chloro-1-methyl-3-(methylsulfonamido)-1H-indazol-7-yl)-4-oxo-6-(6-(trifluoromethyl)pyridin-2-yl)-3,4-dihydropyrido[2,3-d]pyrimidin-2-yl)-2-(3,5-difluorophenyl)ethyl)-2-((3bS,4aR)-3-(difluoromethyl)-5,5-difluoro-3b,4,4a,5-tetrahydro-1H-cyclopropa[3,4]cyclopenta[1,2-c]pyrazol-1-yl)acetamide], the EC50 in the data set on recombinant NL4-3 virus came to 0.055 nM. Further, the CC50 at 4 day in data set [1] is > 100 nM.
For `Cn1nc(NS(C)(=O)=O)c2c(Cl)ccc(-n3c([C@H](Cc4cc(F)cc(F)c4)NC(=O)Cn4nc(C(F)F)c5c4C(F)(F)[C@@H]4C[C@H]54)nc4nc(-c5ccnn5CC5CC5)ccc4c3=O)c21` (atropisomer, axis not shown; (P)) [Example 78, N-((S)-1-((3P)-3-(4-chloro-1-methyl-3-(methylsulfonamido)-1H-indazol-7-yl)-7-(1-(cyclopropylmethyl)-1H-pyrazol-5-yl)-4-oxo-3,4-dihydropyrido[2,3-d]pyrimidin-2-yl)-2-(3,5-difluorophenyl)ethyl)-2-((3bS,4aR)-3-(difluoromethyl)-5,5-difluoro-3b,4,4a,5-tetrahydro-1H-cyclopropa[3,4]cyclopenta[1,2-c]pyrazol-1-yl)acetamide] the same measures were 0.09 nM and > 100 nM.
As to `Cn1nc(NS(C)(=O)=O)c2c(Cl)ccc(-n3c([C@H](Cc4cc(F)cc(F)c4)NC(=O)Cn4nc(C(F)F)c5c4C(F)(F)[C@@H]4C[C@H]54)nc4nc(-c5cccc(Cl)n5)ccc4c3=O)c21` (atropisomer, axis not shown; (P)) [Example 50, N-((S)-1-((3P)-3-(4-chloro-1-methyl-3-(methylsulfonamido)-1H -indazol-7-yl)-7-(6-chloropyridin-2-yl)-4-oxo-3,4-dihydropyrido[2,3-d]pyrimidin-2-yl)-2-(3,5-difluorophenyl)ethyl)-2-((3bS,4aR)-3-(difluoromethyl)-5,5-difluoro-3b,4,4a,5-tetrahydro-1H-cyclopropa[3,4]cyclopenta[1,2-c]pyrazol-1-yl)acetamide], the EC50 in the data set on recombinant NL4-3 virus came to 0.056 nM. Further, in data set [1], the CC50 at 4 day was > 100 nM.
